Laboratory results reported in paper PMC3927586, “Protein kinase C-delta inactivation inhibits the proliferation and survival of cancer stem cells in culture and in vivo” (BMC Cancer, 2014).

Assays:
recombinant PKCα = target: T1, recombinant PKCα (Homo sapiens, UniProt P17252); assay: PKC kinase activity assay (Z-lyte), PKCα; format: biochemical; details: in vitro kinase assay; read-out: PKCα IC50
T1 construct: purchased Invitrogen
Procedure: (§1) Assays were carried out using recombinant PKCδ or PKCα, (Invitrogen) and the Z-lyte Kinase Assays (Invitrogen) with a “PKC-kinase-specific” peptide substrate. FRET interactions produce a change in fluorescence (ex455/ex520) upon phosphorylation. The kit was used according to the manufacturer’s instructions.

[1] = system: non-transformed cell lines; set-up: method as in PMID 21990324; details: cited from earlier work
PCSC cells = assay: Cytotoxicity (LDH release) in pancreatic cancer stem cells; format: cell-based, human
Procedure: (§2) LDH release was assessed by spectrophotometrically measuring the oxidation of NADH in both the cells and media. Cells were seeded in 24-well plates, and exposed to PKCδ inhibitors or vehicle. After different times of exposure, cytotoxicity was quantified by a standard measurement of LDH release with the use of the LDH assay kit (Roche Molecular Biochemicals) according to the manufacturer’s protocol. Briefly, total culture medium was cleared by centrifugation. For assay of released LDH, supernatants were collected. To assess total LDH in cells, Triton X-100 was added to vehicle (control) wells to release intracellular LDH. LDH assay reagent was added to lysates or supernatants and incubated for up to 30 min at room temperature in dark, the reaction was stopped, and the absorbance was measured at 490 nm. The percentage of LDH release was then calculated as the LDH in the supernatants as a fraction of the total LDH.
Figure 2 Effects of PKCδ inhibitors on human cancer stem cells. (A) PCSC and PrCSC cells at 80% confluence were exposed to rottlerin. DMSO served as vehicle control (Vehicle). After 24 and 72 hr of exposure, cell mass was evaluated by MTT assay. Control values were normalized to 100%. p values for comparison between treatments reached significance at 24 hr of exposure (p≤0.01) for both cell types, and remained significant at 72 hr. (B) PCSC and PrCSC cells at 50% confluence were exposed to rottlerin. Cytotoxicity was evaluated by LDH-release assay. Total maximal LDH release was assigned the arbitrary value of 100% (Control). p values for comparison between effects of treatments on LDH release reached significance at 24 hr of exposure (p<0.01) for both cell types, and remained significant at 72 hr. (C) Effects of PKCδ inhibitor on tumor cell clonogenic capacity. PCSC were exposed to vehicle or rottlerin (10 μM) for 6, 18, 24, or 48 hr. Viable cells were enumerated and re-plated in media without inhibitor, and colony numbers were quantitated 15 days later. p values for comparison of treatment effects on clonogenic capacity reached significance (p=0.005) at 18 hr of exposure and remained significant for all subsequent exposure times. The insert is a photograph of stained colonies on plates. (D) Structures of staurosporine, rottlerin, second-generation (KAM1) and third-generation (BJE6-106) derivatives. (E) PCSC and PrCSC cells at 50% confluence were exposed to KAM1 at the indicated concentrations. DMSO served as vehicle control (Vehicle). Cytotoxicity was evaluated by LDH-release assay, as in panel B. p values for comparison between treatment effects on LDH release reached significance at 24 hr of exposure to 2.5 μM KAM1 for PCSC cells and at 10 μM for PrCSC (p≤0.01), and remained significant at 72 hr for all concentrations of KAM1. Error bars represent SEM.

PrCSC cells = assay: Cytotoxicity (LDH release) in prostate cancer stem cells; format: cell-based, human
Procedure: as §2
Figure 2 Effects of PKCδ inhibitors on human cancer stem cells. (A) PCSC and PrCSC cells at 80% confluence were exposed to rottlerin. DMSO served as vehicle control (Vehicle). After 24 and 72 hr of exposure, cell mass was evaluated by MTT assay. Control values were normalized to 100%. p values for comparison between treatments reached significance at 24 hr of exposure (p≤0.01) for both cell types, and remained significant at 72 hr. (B) PCSC and PrCSC cells at 50% confluence were exposed to rottlerin. Cytotoxicity was evaluated by LDH-release assay. […] Viable cells were enumerated and re-plated in media without inhibitor, and colony numbers were quantitated 15 days later. p values for comparison of treatment effects on clonogenic capacity reached significance (p=0.005) at 18 hr of exposure and remained significant for all subsequent exposure times. […] Cytotoxicity was evaluated by LDH-release assay, as in panel B. p values for comparison between treatment effects on LDH release reached significance at 24 hr of exposure to 2.5 μM KAM1 for PCSC cells and at 10 μM for PrCSC (p≤0.01), and remained significant at 72 hr for all concentrations of KAM1. […]

recombinant PKCδ = target: T2, recombinant PKCδ (Homo sapiens, UniProt Q05655); assay: PKC kinase activity assay (Z-lyte), PKCδ; format: biochemical; details: in vitro kinase assay; read-out: PKCδ IC50
T2 construct: purchased Invitrogen
T2 sequence (Q05655 whole entry): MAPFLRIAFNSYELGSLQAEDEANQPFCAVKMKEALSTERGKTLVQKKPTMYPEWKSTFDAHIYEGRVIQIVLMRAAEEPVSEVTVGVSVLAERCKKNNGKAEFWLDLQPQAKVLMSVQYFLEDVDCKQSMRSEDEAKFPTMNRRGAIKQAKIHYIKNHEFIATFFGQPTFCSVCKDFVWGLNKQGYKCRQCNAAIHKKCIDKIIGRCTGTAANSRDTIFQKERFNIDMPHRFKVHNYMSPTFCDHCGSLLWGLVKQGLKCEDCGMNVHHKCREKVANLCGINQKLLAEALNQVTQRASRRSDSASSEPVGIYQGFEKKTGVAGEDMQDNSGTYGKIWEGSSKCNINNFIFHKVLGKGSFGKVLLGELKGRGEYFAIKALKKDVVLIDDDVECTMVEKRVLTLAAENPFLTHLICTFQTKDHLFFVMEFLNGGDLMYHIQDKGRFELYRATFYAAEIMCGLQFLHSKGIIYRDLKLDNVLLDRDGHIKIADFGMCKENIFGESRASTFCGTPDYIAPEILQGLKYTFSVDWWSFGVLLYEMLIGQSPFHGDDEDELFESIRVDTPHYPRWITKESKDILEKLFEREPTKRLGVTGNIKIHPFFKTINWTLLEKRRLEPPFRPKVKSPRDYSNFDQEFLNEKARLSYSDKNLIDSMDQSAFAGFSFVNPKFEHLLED
Procedure: as §1

CC1(C)C=Cc2cc(CCn3c4ccccc4c4ccccc43)cc(C(=O)/C=C/c3ccccc3)c2O1 [KAM1]
IC50 (recombinant PKCα): 157 µM
cytotoxicity in non-transformed cell lines [1]: not producing cytotoxicity
lowest concentration inducing cytotoxicity (LDH release) in PCSC (PCSC cells): 2.5 µM
concentration at which LDH release reached significance in PCSC (PCSC cells; 24 hr of exposure, p≤0.01): 2.5 µM
lowest concentration inducing cytotoxicity (LDH release) in PrCSC (PrCSC cells): 5 µM
concentration at which LDH release reached significance in PrCSC (PrCSC cells; 24 hr of exposure, p≤0.01): 10 µM
IC50 (recombinant PKCδ): 2 µM
